Laboratory results taken from US10828279B2, “Prophylactic and/or therapeutic drug for diabetic nephropathy” (HuBit genomix, Inc., priority 2018, dated 2020).

Legend:
[1] = test system: Col4α1 (type IV collagen); experiment: RT-quantitative PCR of Col4α1 (type IV collagen) mRNA expression in AGE-stimulated cultured mouse mesangial cells; type: cell-based; conditions: for Col4α1 (%): relative value, AGE 300 μg/ml+Palovarotene 0.5 μM = 100%
Protocol: (§1) The glomeruli were isolated from four-week-old wild-type C57BL/6J mice according to the method of Davies M. et al. (Kidney Int. 1994; 45(2):320-7)^36 with necessary modifications and primary culture of the glomeruli was conducted in order to establish mouse mesangial cell strains. AGEs used for cell stimulation were prepared according to the method of Doi T. et al. (Proc, Natl. Acad. Sci. U.S.A. 1992; 89:2873-2877)^37 with necessary modifications. The cultured mouse mesangial cells were grown to confluence, subjected to serum starvation using Opti-MEM (Invitrogen). Then, the cells were treated with (1) no stimulation, (2) AGE 300 μg/ml; (3) AGE 300 μg/ml+palovarotene 0.5 μM; or (4) AGE 300 μg/ml+palovarotene 1 μM. Twenty-four hours after the treatment, RNA extraction was performed by AGPC method. RT-quantitative PCR was performed with the resultant RNA, followed by evaluation of mRNA expression levels by the comparative Ct method (ΔΔ Ct method).

[2] = test system: streptozocin-induced diabetic mice; experiment: Histological evaluation of the kidney in STZ-induced diabetic mice on high fat diet; type: in vivo, mouse; conditions: DM+Palo vs DM; palovarotene 60 μg/kg i.p. twice a week, 12 weeks
Protocol: Streptozocin (Wako) was administered to 12-15 week-old ICR mice (purchased from CLEA Japan) intraperitoneally (I.P.) for five consecutive days at 50 mg/kg per injection to thereby evoke diabetes. Four weeks after the STZ administration, mouse diet was changed to a high fat diet HFD60 (Oriental Yeast) and, at the same time, intraperitoneal administration of palovarotene at 60 μg/kg twice a week was started. Twelve weeks later, the mice were dissected, followed by histological evaluation.

[3] = test system: TGF-β1; experiment: RT-quantitative PCR of TGF-β1 mRNA expression in AGE-stimulated cultured mouse mesangial cells; type: cell-based; conditions: for TGF-β1 (%): relative value, AGE 300 μg/ml+Palovarotene 0.5 μM = 100%
Protocol: as §1

[4] = test system: BMP4; experiment: RT-quantitative PCR of BMP4 mRNA expression in AGE-stimulated cultured mouse mesangial cells; type: cell-based; conditions: for BMP4 (%): relative value, AGE 300 μg/ml+Palovarotene 0.5 μM = 100%
Protocol: as §1

[5] = test system: UUO mice; experiment: Unilateral ureter obstruction (UUO) mouse renal tubulointerstitial fibrosis model, Sirius Red staining; type: in vivo; conditions: UUO+Palo vs UUO; palovarotene 1 mg/kg i.p. for 6 days, day 7 after ureter ligation
Protocol: Unilateral ureter obstruction (UUO) model is a model in which renal interstitial fibrosis is induced by feeding for seven days under ureter ligation. Briefly, the kidney of a mouse is exposed extraperitoneally by a unilateral dorsal incision. Then, ureter ligation is performed at 2 to 3 spots at intervals of 1 mm with surgical suture, which leads to decreased renal blood flow and glomerular filtration rate. Further, macrophages infiltrate into the tubulointerstitium, apoptosis of tubular epithelial cells occurs, and increase of fibroblasts and extracellular matrix protein progresses in the interstitium, which leads to interstitial fibrosis. In this model, fibrosis is evoked in a short period of time and there is no complication of uremia since no toxic substance is used. Thus, this is an interstitial fibrosis model with high reproducibility. A UUO model was established using 10-12 week-old ICR mice (purchased from CLEA Japan). […] UUO group consists of mice which were kept for 7 days under ureter ligation to thereby induce renal interstitial fibrosis. Palovarotene group consists of mice which received intraperitoneal administration of palovarotene (1 mg/kg) for 6 consecutive days starting from one day after UUO treatment. Mice in each group were dissected 7 days after UUO treatment, followed by histological evaluation of the kidney by Sirius Red staining.

[6] = AGE 300 μg/ml + compound 0.5 μM, 24 h
[7] = AGE 300 μg/ml + compound 1.0 μM, 24 h
[8] = Example 4, 0.5 and 1.0 μM, AGE 300 μg/ml, comparison with palovarotene

## CC1(C)CCC(C)(C)c2cc(Cn3cccn3)c(/C=C/c3ccc(C(=O)O)cc3)cc21 [Palovarotene, 4-[(E)-2-[5,5,8,8-tetramethyl-3-(pyrazol-1-ylmethyl)-6,7-dihydronaphthalen-2-yl]ethenyl]benzoic acid]
[1]; [6]
  Col4α1 (%): 100%
[1]; [7]
  Col4α1 (%): 50%
[1]; [8]
  inhibitory effect on Col4α1 (type IV collagen) expression (in words): dose-dependent inhibitory effect
[1]; palovarotene 0.5 μM, AGE 300 μg/ml, 24 h, FIG. 2C
  production of Col4α1 (type IV collagen) increased by AGE stimulation: completely inhibited
[2]
  Smad1 activation (pSmad1): inhibition of Smd1 activation
  WT1 expressed in the podocyte nuclei (WT1): inhibition of reduction of WT1
  expansion of the glomerular mesangial area (PAS staining): inhibition of expansion of the glomerular mesangial area
  nephrin-expressing area in glomerular podocytes (Nephrin): inhibition of reduction of nephrin-expressing area
  phosphorylation of Smad2/3: strongly inhibited
  type IV collagen expression (Col4): reduction of type IV collagen expression
[3]; [6]
  TGF-β1 (%): 100%
[3]; [7]
  TGF-β1 (%): 70%
[3]; AGE 300 μg/ml + palovarotene 0.5 or 1 μM, 24 h, FIG. 2A
  TGF-β expression increased by AGE stimulation: strongly inhibited
[3]; [8]
  inhibitory effect on TGF-01 expression (in words): dose-dependent inhibitory effect
[4]; [6]
  BMP4 (%): 100%
[4]; [7]
  BMP4 (%): 60%
[4]; AGE 300 μg/ml + palovarotene 0.5 or 1 μM, 24 h, FIG. 2B
  BMP4 expression increased by AGE stimulation: clearly inhibited by palovarotene in a dose dependent manner
[4]; [8]
  inhibitory effect on BMP4 expression (in words): dose-dependent inhibitory effect
[4]; palovarotene 1 μM, AGE 300 μg/ml, 24 h, FIG. 2B
  inhibition of BMP4 expression increased by AGE stimulation: almost complete
[5]
  degree of staining of the tubulointerstitium with Sirius Red: clearly lower than that in the kidney tissue of UUO mice
  tubulointerstitial fibrosis: markedly inhibits
